Data from ChEMBL document CHEMBL1201862, “PubChem BioAssay data set” (2004).
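48-hour exposure; five concentrations; linearly interpolated endpoints. Here, GI50 denotes the concentration required for 50% inhibition of growth.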 The source made the active and inactive calls. Rule as the data show it: active = GI50 up to about 1.1 µM and inactive = higher.

Legend:
Experiment in all cases: NCI anticancer screen, dose series, 48 h
OVCAR-5 = tested on: OVCAR-5
SK-OV-3 = tested on: SK-OV-3
T47D = tested on: T47D
IGROV-1 = tested on: IGROV-1
SW-620 = tested on: SW-620
SNB-75 = tested on: SNB-75
K562 = tested on: K562
RXF 393 = tested on: RXF 393
SK-MEL-28 = tested on: SK-MEL-28
U-251 = tested on: U-251
OVCAR-3 = tested on: OVCAR-3
SF-268 = tested on: SF-268
MDA-N = tested on: MDA-N
A498 = tested on: A498
Malme-3M = tested on: Malme-3M
ACHN = tested on: ACHN
EKVX = tested on: EKVX
SK-MEL-2 = tested on: SK-MEL-2
HL-60 = tested on: HL-60
KM12 = tested on: KM12
HT-29 = tested on: HT-29
CCRF-CEM = tested on: CCRF-CEM
SK-MEL-5 = tested on: SK-MEL-5
NCI-H522 = tested on: NCI-H522
UACC-257 = tested on: UACC-257
TK-10 = tested on: TK-10
DU-145 = tested on: DU-145
HCT-15 = tested on: HCT-15
MOLT-4 = tested on: MOLT-4
NCI/ADR-RES = tested on: NCI/ADR-RES
NCI-H23 = tested on: NCI-H23
MCF7 = tested on: MCF7
MDA-MB-435 = tested on: MDA-MB-435
SF-295 = tested on: SF-295
Hs-578T = tested on: Hs-578T
OVCAR-4 = tested on: OVCAR-4
CAKI-1 = tested on: CAKI-1
MDA-MB-231 = tested on: MDA-MB-231
NCI-H460 = tested on: NCI-H460
SF-539 = tested on: SF-539
NCI-H226 = tested on: NCI-H226
M14 = tested on: M14
786-0 = tested on: 786-0
A549 = tested on: A549
SNB-19 = tested on: SNB-19
HOP-92 = tested on: HOP-92
SN12C = tested on: SN12C
OVCAR-8 = tested on: OVCAR-8
UACC-62 = tested on: UACC-62
COLO 205 = tested on: COLO 205
PC-3 = tested on: PC-3
LOX IMVI = tested on: LOX IMVI
HCC 2998 = tested on: HCC 2998
HOP-62 = tested on: HOP-62
RPMI-8226 = tested on: RPMI-8226
SR = tested on: SR
HCT-116 = tested on: HCT-116
UO-31 = tested on: UO-31

For `O=C(CCCN1CCC2(CC1)CC(c1ccccc1)OC2=O)c1ccc(F)cc1` (stereo not drawn), the GI50 (OVCAR-5) was 45.9 µM (inactive), the GI50 (SK-OV-3) was > 100 µM (inactive) and the GI50 (T47D) was 16.2 µM (inactive). The GI50 (IGROV-1) was > 100 µM (inactive), the GI50 (SW-620) was 40.1 µM (inactive) and the GI50 (SNB-75) was 16.7 µM (inactive). For the same molecule, the GI50 (K562) was 29.5 µM (inactive), the GI50 (RXF 393) was 66.2 µM (inactive) and the GI50 (SK-MEL-28) was 39.4 µM (inactive). The GI50 (U-251) was 74.5 µM (inactive), the GI50 (OVCAR-3) was 33.3 µM (inactive) and the GI50 (SF-268) was 53.7 µM (inactive). The GI50 (MDA-N) was 49.4 µM (inactive), the GI50 (A498) was 24 µM (inactive) and the GI50 (Malme-3M) was 17.8 µM (inactive). The GI50 (ACHN) was 54.6 µM (inactive), the GI50 (EKVX) was > 100 µM (inactive) and the GI50 (SK-MEL-2) was 35.1 µM (inactive). For the same molecule, the GI50 (HL-60) was 25.6 µM (inactive), the GI50 (KM12) was 35 µM (inactive) and the GI50 (HT-29) was 9.06 µM (inactive). The GI50 (CCRF-CEM) was 41.6 µM (inactive), the GI50 (SK-MEL-5) was 15 µM (inactive) and the GI50 (NCI-H522) was > 100 µM (inactive). For the same molecule, the GI50 (UACC-257) was 23.6 µM (inactive), the GI50 (TK-10) was 59 µM (inactive) and the GI50 (DU-145) was 64.9 µM (inactive). The GI50 (HCT-15) was 37.2 µM, the GI50 (MOLT-4) was 28.3 µM (inactive) and the GI50 (NCI/ADR-RES) was 92 µM (inactive). The GI50 (NCI-H23) was 53.7 µM (inactive), the GI50 (MCF7) was 35.2 µM (inactive) and the GI50 (MDA-MB-435) was 41.3 µM (inactive). For the same molecule, the GI50 (SF-295) was 25 µM (inactive), the GI50 (Hs-578T) was 40.8 µM (inactive) and the GI50 (OVCAR-4) was 37.9 µM (inactive). The GI50 (CAKI-1) was 24.5 µM (inactive), the GI50 (MDA-MB-231) was 84.5 µM (inactive) and the GI50 (NCI-H460) was 48.1 µM (inactive). For the same molecule, the GI50 (SF-539) was 28.4 µM (inactive), the GI50 (NCI-H226) was 53.7 µM (inactive) and the GI50 (M14) was 15.8 µM (inactive). The GI50 (786-0) was 24.1 µM (inactive), the GI50 (A549) was > 100 µM (inactive) and the GI50 (SNB-19) was 39.2 µM (inactive). The GI50 (HOP-92) was 26.9 µM (inactive), the GI50 (SN12C) was 48.6 µM (inactive) and the GI50 (OVCAR-8) was > 100 µM (inactive). For the same molecule, the GI50 (UACC-62) was 25.2 µM (inactive), the GI50 (COLO 205) was 17.3 µM (inactive) and the GI50 (PC-3) was 40.2 µM (inactive). For the same molecule, the GI50 (LOX IMVI) was 19.6 µM (inactive), the GI50 (HCC 2998) was 23.4 µM (inactive) and the GI50 (HOP-62) was 29.6 µM (inactive). The GI50 (RPMI-8226) was 30.1 µM (inactive), the GI50 (SR) was 19.6 µM (inactive) and the GI50 (HCT-116) was 33.8 µM (inactive). The GI50 (UO-31) was 19.4 µM (inactive).
